This note sets out measurements from the Kinase Knowledgebase extract (Sharma et al. 2016).

The structures appear in SMILES notation.

The target of the experiment is PIK3CA (human) (UniProt P42336). The experiment in a line: Cell-Based Assay. Conditions: bt20.
Sequence of PIK3CA (human) (P42336 whole entry, looked up): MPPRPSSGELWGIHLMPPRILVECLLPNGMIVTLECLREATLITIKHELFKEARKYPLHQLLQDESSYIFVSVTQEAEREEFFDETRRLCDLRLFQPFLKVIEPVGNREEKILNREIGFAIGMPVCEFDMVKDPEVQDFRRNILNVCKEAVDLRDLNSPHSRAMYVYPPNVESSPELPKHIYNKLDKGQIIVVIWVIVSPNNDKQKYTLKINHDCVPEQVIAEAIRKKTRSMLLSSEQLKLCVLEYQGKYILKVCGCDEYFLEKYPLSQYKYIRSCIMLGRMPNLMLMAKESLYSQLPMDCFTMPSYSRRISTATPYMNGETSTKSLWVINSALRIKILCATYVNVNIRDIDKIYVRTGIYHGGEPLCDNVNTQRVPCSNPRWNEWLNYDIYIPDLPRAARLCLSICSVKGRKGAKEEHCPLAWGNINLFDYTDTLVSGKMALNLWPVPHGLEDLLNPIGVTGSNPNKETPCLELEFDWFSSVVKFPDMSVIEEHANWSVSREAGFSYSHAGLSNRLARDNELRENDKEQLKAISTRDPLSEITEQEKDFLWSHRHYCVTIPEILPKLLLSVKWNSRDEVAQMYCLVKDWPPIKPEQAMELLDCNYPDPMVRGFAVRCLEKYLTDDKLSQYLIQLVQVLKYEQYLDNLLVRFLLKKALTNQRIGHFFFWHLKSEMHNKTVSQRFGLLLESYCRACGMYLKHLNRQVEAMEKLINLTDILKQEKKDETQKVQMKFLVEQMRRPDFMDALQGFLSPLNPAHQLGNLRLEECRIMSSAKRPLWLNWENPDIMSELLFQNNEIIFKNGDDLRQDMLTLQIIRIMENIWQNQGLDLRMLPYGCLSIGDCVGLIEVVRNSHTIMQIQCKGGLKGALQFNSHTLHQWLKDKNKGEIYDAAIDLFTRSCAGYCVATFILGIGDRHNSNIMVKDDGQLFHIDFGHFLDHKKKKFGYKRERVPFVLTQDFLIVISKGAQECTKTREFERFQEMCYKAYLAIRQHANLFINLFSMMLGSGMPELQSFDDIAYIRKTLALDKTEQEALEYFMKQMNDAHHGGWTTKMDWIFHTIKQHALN
On to `COc1ccc(-c2ccc3ncc4c(c3n2)n(C2CCN(C(=O)CN(C)C)CC2)c(=O)n4C)cn1`, for which the IC50 was determined as 14.4 nM.
In turn, `Cn1c(=O)n([C@H]2CC[C@H](O)CC2)c2c3nc(-c4cnc(N)nc4)ccc3ncc21` showed an IC50 of 3.36 nM.
For the molecule `C[C@@H](CO)n1c(=O)n(C)c2cnc3ccc(-c4cnn(C)c4)nc3c21`, the IC50 was determined as 5040 nM.
Then `COc1ncc(-c2ccc3ncc4c(c3n2)n(C2CCN(C)CC2)c(=O)n4C)cn1`, with 159 nM.
`Cc1ccc(-c2ccc3ncc4c(c3n2)n(C2CCN(C)CC2)c(=O)n4C)cn1` had an IC50 of 22.8 nM. Against the preceding molecule, the IC50 is about 7-fold lower.
For `N[C@H]1CC[C@H](n2c(=O)[nH]c3cnc4ccc(-c5cnc6ccccc6c5)nc4c32)CC1`, the IC50 turned out to be 402 nM.
As to `CN(C)c1ccc(-c2ccc3ncc4c(c3n2)n(C2CCN(C(=O)C(C)(C)O)CC2)c(=O)n4C)cn1`, the IC50 was found to be 6.69 nM.
The figure for `CN1CCC(n2c(=O)n(C)c3cnc4ccc(-c5cnc6[nH]ncc6c5)nc4c32)CC1` is 21.8 nM; for `Cc1ccc(-c2ccc3ncc4c(c3n2)n(C2CCN(CCO)CC2)c(=O)n4C)cn1` it is 35.6 nM.
The molecule `Cn1c(=O)n(C2CCOCC2)c2c3nc(-c4cnc(N)nc4)ccc3ncc21` returned an IC50 of 6.94 nM.
The figure for `CN(C)c1ccc(-c2ccc3ncc4c(c3n2)n(-c2ccc(C(C)(C)C#N)cc2)c(=O)n4C)cn1` is 30.9 nM; for `Cn1c(=O)n(C2CCNCC2)c2c3nc(-c4cnc(N)nc4)ccc3ncc21` it is 137 nM.
In turn, `C[C@H](CO)n1c(=O)n(C)c2cnc3ccc(-c4cccc5[nH]ccc45)nc3c21` came in with an IC50 of 55.3 nM.
Regarding `COCC(=O)N1CCC(n2c(=O)n(C)c3cnc4ccc(-c5cnc(OC)nc5)nc4c32)CC1`, the IC50 was 12.3 nM.
`COc1ncc(-c2ccc3ncc4c(c3n2)n(C2CCN(C(=O)CO)CC2)c(=O)n4C)cn1` displayed an IC50 of 27.2 nM.
For `CC(=O)N1CCC(n2c(=O)n(C)c3cnc4ccc(-c5ccc(S(C)(=O)=O)cc5)nc4c32)CC1`, the IC50 is 2580 nM. Compared with the last molecule, the IC50 is about 95-fold higher.
Then `COc1ncc(-c2ccc3ncc4c(c3n2)n([C@H]2CC[C@H](C(N)=O)CC2)c(=O)n4C)cn1`, with 45.6 nM; and `Cn1c(=O)n(C2CCOCC2)c2c3nc(-c4cnn(CCO)c4)ccc3ncc21`, with 579 nM; and `COc1ncc(-c2ccc3ncc4c(c3n2)n(C2CCOCC2)c(=O)n4C)cn1`, with 98.9 nM.
In the case of `CC(=O)N1CCC(n2c(=O)n(C)c3cnc4ccc(-c5cnc6ccccc6c5)nc4c32)CC1`, the IC50 was found to be 4.59 nM.
In turn, `COCC(=O)N1CCC(n2c(=O)n(C)c3cnc4ccc(-c5cnc6[nH]ncc6c5)nc4c32)CC1` displayed an IC50 of 15.3 nM. This IC50 lies about 3.3-fold higher than the previous one.
For `COCCn1c(=O)n(C)c2cnc3ccc(-c4ccc(OC)nc4)nc3c21`, the IC50 worked out at 207 nM.
`Cn1c(=O)n(C2CCN(C(=O)C(C)(C)O)CC2)c2c3nc(-c4cnc5ccccc5c4)ccc3ncc21`: the IC50 came to 28 nM. This IC50 is about 7.4-fold lower than that of the molecule before.
`CC(=O)N1CCC(n2c(=O)n(C)c3cnc4ccc(-c5ccnc6[nH]ncc56)nc4c32)CC1` came in with an IC50 of 140 nM.
In turn, `Cc1ccc(-c2ccc3ncc4c(c3n2)n([C@H](C)CO)c(=O)n4C)cn1` displayed an IC50 of 269 nM.
In turn, `CN(C)C(=O)CN1CCC(n2c(=O)n(C)c3cnc4ccc(-c5cnn(C)c5)nc4c32)CC1` showed an IC50 of 248 nM.
The molecule `CCNC(=O)Nc1ccc(-c2ccc3ncc4c(c3n2)n(C2CCN(C(=O)OC(C)(C)C)CC2)c(=O)n4C)cc1` returned an IC50 of 39.9 nM. This IC50 lies about 6.2-fold lower than the previous one.
Regarding `COc1ncc(-c2ccc3ncc4c(c3n2)n(-c2ccc(C(C)(C)C#N)cc2)c(=O)n4C)cc1F`, the IC50 amounted to 90.7 nM.
`Cc1ccc(-c2ccc3ncc4c(c3n2)n(-c2ccc(C(C)(C)C#N)cc2)c(=O)n4C)cn1` displayed an IC50 of 24.4 nM.
Then `COC(=O)N1CCC(n2c(=O)n(C)c3cnc4ccc(-c5cnc6ccccc6c5)nc4c32)CC1`, with 8.07 nM; and `CC(=O)N1CCC(n2c(=O)n(C)c3cnc4ccc(-c5ccc(N(C)C)nc5)nc4c32)CC1`, with 17.2 nM; and `COc1ncc(-c2ccc3ncc4[nH]c(=O)n(-c5ccc(C(C)(C)C#N)cc5)c4c3n2)cc1F`, with 197 nM.
For the molecule `COc1ncc(-c2ccc3ncc4c(c3n2)n(C2CCN(CCO)CC2)c(=O)n4C)cn1`, the IC50 is 124 nM.
`COc1ccc(-c2ccc3ncc4c(c3n2)n(C2CCOCC2)c(=O)n4C)cn1` returned a half-inhibitory concentration (IC50) of 18.5 nM.
In the case of `Cc1ccc(-c2ccc3ncc4c(c3n2)n(C2CCN(CC(N)=O)CC2)c(=O)n4C)cn1`, the IC50 was 18.7 nM. The IC50 values of the last two molecules are within 1.5-fold of each other.
Then `COc1ncc(-c2ccc3ncc4c(c3n2)n(C2CCN(C(=O)CN)CC2)c(=O)n4C)cn1`, with 184 nM; and `Cn1c(=O)n(C2CCOCC2)c2c3nc(-c4cn[nH]c4)ccc3ncc21`, with 18.3 nM.
On to `CC(=O)N1CCC(n2c(=O)n(C)c3cnc4ccc(-c5ccc(N)nc5)nc4c32)CC1`, for which the IC50 was 9.17 nM.
`Cc1ccc(-c2ccc3ncc4c(c3n2)n(C2CCN(C(=O)CN(C)C)CC2)c(=O)n4C)cn1` had a 50% inhibitory concentration (IC50) of 42.7 nM.
`O=c1[nH]c2cnc3ccc(-c4cnc5ccccc5c4)nc3c2n1C1CCNCC1` displayed an IC50 of 353 nM.
On to `Cn1c(=O)n(C2CCN(C(=O)C(C)(C)N)CC2)c2c3nc(-c4cnc5ccccc5c4)ccc3ncc21`, for which the IC50 was determined as 11.7 nM.
As to `COc1ncc(-c2ccc3ncc4c(c3n2)n(C2CCN(CC(=O)N(C)C)CC2)c(=O)n4C)cn1`, the IC50 is 37 nM.
For `CN(C)CC(=O)N1CCC(n2c(=O)n(C)c3cnc4ccc(-c5cnc6ccccc6c5)nc4c32)CC1`, the IC50 was found to be 18 nM.
In the case of `COc1ncc(-c2ccc3ncc4c(c3n2)n(C2CCN(C(=O)CN(C)C)CC2)c(=O)n4C)cn1`, the IC50 worked out at 175 nM.
Then `Cn1c(=O)n(C2CCN(CC(F)(F)F)CC2)c2c3nc(-c4cnc5ccccc5c4)ccc3ncc21`, with 14.8 nM.
`Cc1ccc(-c2ccc3ncc4c(c3n2)n([C@H]2CC[C@H](O)CC2)c(=O)n4C)cn1` registered a half-maximal inhibitory concentration (IC50) of 18.5 nM.
Molecule `Cn1c(=O)n(C2CCOCC2)c2c3nc(-c4ccn[nH]4)ccc3ncc21` had an IC50 of 309 nM. This IC50 lies about 17-fold higher than the previous one.
Regarding `Cn1c(=O)n([C@H]2CC[C@H](N)CC2)c2c3nc(-c4cnc5ccccc5c4)ccc3ncc21`, the 50% inhibitory concentration (IC50) is 46.4 nM.
`COc1cccc(-c2ccc3ncc4c(c3n2)n(C2CCN(C(=O)[C@H](C)O)CC2)c(=O)n4C)c1` showed an IC50 of 34.4 nM. The IC50 values of the last two molecules are within 1.5-fold of each other.
Molecule `C[C@H](O)C(=O)N1CCC(n2c(=O)n(C)c3cnc4ccc(-c5ccnc6[nH]ncc56)nc4c32)CC1` displayed an IC50 of 218 nM.
In the case of `CNC(=O)N1CCC(n2c(=O)n(C)c3cnc4ccc(-c5ccc(C)nc5)nc4c32)CC1`, the IC50 came to 59.4 nM.
`COc1ncc(-c2ccc3ncc4[nH]c(=O)n(-c5ccc(C(C)(C)C#N)cc5)c4c3n2)cn1` had an IC50 of 43.9 nM.
Regarding `CCN1CCC(n2c(=O)n(C)c3cnc4ccc(-c5cnc6ccccc6c5)nc4c32)CC1`, the IC50 amounted to 11.7 nM.
Molecule `COc1ccc(-c2ccc3ncc4[nH]c(=O)n(-c5ccc(C(C)(C)C#N)cc5)c4c3n2)cn1` showed an IC50 of 11.5 nM.
`Cn1c(=O)n(C2CCN(C(=O)C(C)(C)O)CC2)c2c3nc(-c4cnc5[nH]ncc5c4)ccc3ncc21`: the IC50 amounted to 9.91 nM.
In the case of `Cn1cc(-c2ccc3ncc4c(c3n2)n(C2CCN(CC(F)(F)F)CC2)c(=O)n4C)cn1`, the IC50 was 195 nM.
For the molecule `CCOC(=O)N1CCC(n2c(=O)n(C)c3cnc4ccc(-c5cnc6ccccc6c5)nc4c32)CC1`, the IC50 came to 20.4 nM.
Consider `Cn1cc(-c2ccc3ncc4c(c3n2)n(-c2ccc(C(C)(C)C#N)cc2)c(=O)n4C)cn1`, for which the half-maximal inhibitory concentration (IC50) worked out at 116 nM. Against the preceding molecule, the IC50 is about 5.7-fold higher.
With `Cc1ccc(-c2ccc3ncc4c(c3n2)n(C2CCNCC2)c(=O)n4C)cn1`, the IC50 came to 101 nM.
